Experimental data: patent US11286228B2, “Stilbene derivative and method for preparing same” (Ozchela Inc., priority 2016, dated 2022)
Where two headings read alike, the source gives them in different places.

How the values were obtained:
[1] = Cytotoxicity, MTT test in HCV replicon cells; assay type: cell-based
Protocol: The cytotoxicity of the stilbene derivatives was measured. Replicon cells that stably replicate a hepatitis C virus genome were attached to a 96-well plate and cultured in a CO2 incubator at 37° C. for 24 hr. The replicon cells cultured for one day were washed with a phosphate buffered saline (PBS) solution, treated with the compounds of the present invention, and then cultured for 72 hr. Thereafter, through the MTT [3-(4,5-dimethylthiazol-2-yl)-2,5-diphenyltetrazolium bromide] cytotoxicity test, CC50 values of the compounds of the present invention were measured. The CC50 values of the compounds of the present invention were 200 μM or more.

cyclophilin = test: Cis-trans isomerase inhibitory activity (chymotrypsin-coupled Suc-AAPF-pNA cleavage, absorbance 390 nm); assay type: biochemical; conditions: cyclophilin, chymotrypsin, Suc-AAPF-pNA; read-out: Test Example 1: cis-trans isomerase inhibitory activity (IC50)
Procedure, shortened: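 Cyclophilin isomerase activity coupled to chymotrypsin cleavage of Suc-AAPF-pNA: chymotrypsin cuts only the trans peptide, so isomerase-driven cis-to-trans conversion increases cleavage within a fixed period. Released product read by absorbance at 390 nm with compound present alongside cyclophilin.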

[2] = system: mitochondria obtained from hepatocytes; test: Inhibitory activity on calcium-induced mitochondrial swelling (absorbance 520 nm); conditions: Hepatocyte; calcium-induced swelling of extracted mitochondria; read-out: Test Example 4: inhibiting mitochondrial swelling (IC50)
Procedure, shortened: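 Mitochondria isolated from hepatocytes by Dounce disruption, 700×g clearing and 12,000×g pelleting. Swelling induced with calcium and followed as absorbance at 520 nm; activity expressed as IC50.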

hepatitis C virus = test: Antiviral activity in HCV replicon cells (Renilla luciferase); assay type: cell-based; conditions: Hepatitis C virus, read-out: Test Example 3: antiviral activity (EC50)
Procedure, shortened: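 Replicon cells stably carrying the HCV genome, pre-cultured 24 h at 37 °C, treated with compound for 72 h, then lysed on ice. Renilla luciferase luminescence used as a measure of HCV genome level, expressed relative to DMSO-treated cells, from which EC50 was derived.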

[3] = HCV replicon cells, 72 hr, Renilla luciferase, relative to DMSO

Structure (SMILES)	CC50 at 72 h [1] [µM]	IC50 (cyclophilin) [µM]	IC50 [2] [µM]	EC50 (hepatitis C virus; [3]) [µM]	EC50 (hepatitis C virus; 72 h) [µM]
CCCCOC(=O)c1c(C=Cc2ccc(CC(C)(C)C)cc2)cccc1CC [Compound 66]	245	0.02 to 0.2	5 to 50	0.5 to 5	
CCCCOC(=O)c1c(C)cccc1C=Cc1ccc(CC(C)(C)C)cc1 [Compound 65]	284	0.02 to 0.2	5 to 50	0.5 to 5	
CCCCOC(=O)c1ccccc1C=Cc1ccc(CC(C)(C)C)cc1 [Compound 64]	320	≤ 0.02	< 5	< 0.5	
CC(C)(C)CCc1ccccc1C=C(C#N)c1ccc([N+](=O)[O-])cc1 [Compound 43]		0.02 to 0.2	5 to 50	0.5 to 5	
N#CC(=Cc1ccccc1CCc1ccc(Cl)cc1)c1ccc([N+](=O)[O-])cc1 [Compound 48]		0.02 to 0.2	5 to 50		0.5 to 5
CCCCOC(=O)c1ccccc1C=C(Br)c1ccc(CC(C)(C)C)cc1C [Compound 114]		≤ 0.02	< 5	< 0.5	
Cc1ccc(CCc2ccccc2C=C(C#N)c2ccc([N+](=O)[O-])cc2)cc1 [Compound 52]		0.02 to 0.2	5 to 50	0.5 to 5	
CC(C)(C)Cc1ccc(C=Cc2ccccc2C(N)=O)cc1 [Compound 141]		≤ 0.02	< 5	< 0.5	
